From patent US20130178479A1, “PHARMACEUTICAL COMBINATIONS” (NOVARTIS AG, priority 2010, published 2013)
Read-outs that look alike come from different tables or passages of the source.

Experiments:
[1] = system: RPMI 8226 human Multiple Myeloma cancer cells; assay: Cell proliferation assay (CellTiter-Glo) in RPMI 8226; type: cell-based; conditions: for IC50: Homo sapiens
Method: (§1) Celt Proliferation Assay: Cell viability was determined by measuring cellular ATP content using the CellTiter-Glo® Luminescent Cell Viability Assay (Promega #G7573) according to manufacturer's protocol. Briefly, 1500-50000 cells were plated on either 384 or 96 well plates in 30 μl (384 well) or 100 μl (96 well) growth media, cells were: allowed to attach overnight and followed by 72 hrs of incubation with various concentration of drugs or drug combinations (10 μl per well in 384 well plates), at the end of the drug treatment, 30 μl of the CellTiter-Glo regent were added to each well (384 well plates) to lyse the cell, and luminescence signals were recorded on a Envision plate reader.
(§2) Method for calculating the effect of the Combination: To evaluate the everolimus and Compound A combination effect in a non-bias way and to identify synergistic effect at all possible concentrations, the combination studies were conducted with a “dose matrix”, where a combination is tested in all possible permutations of serially-diluted everolimus and Compound A single agent doses, in all combination assays, compounds were applied simultaneously. Single agent dose responding curves, IC50, IC90, and the Synergy are all analyzed using Chalice software (CombinatoRx, Cambridge, Mass.). Synergy was calculated by comparing a combination's response to those of its single agents, against the drug-with-itself dose-additive reference model. Deviations from dose additivity can be assessed visually on an Isobologram or numerically With a Combination Index. Excess inhibition compare to additivity can also be plotted as a full dose-matrix chart to capture where the synergies occur. To quantify the overall strength of combination effects, a volume score VHSA=ΣXYInfXInfY(Idata−IHSA) is also calculated between the data and the highest-single-agent surface, normalized for single agent dilution factors fX,fY[ref].
The cells were plated at 50000 cells/well in 96 well plates in triplicates, and treated with compound for 72 hrs prior to the measurement (FIG. 12). The following “dose matrix”, everolimus: 8 dose, 3×, 500 nM to 0.23 nM, Compound A: 8 dose, 2×, 1 μM to 8 nM, was applied.

[2] = system: KMS-11 human Multiple Myeloma cancer cells; assay: Cell proliferation assay (CellTiter-Glo) in KMS-11; type: cell-based; conditions: for IC50: Homo sapiens
Method: as §1, §2
The cells were plated, at 50000 cells/well in 96 well plates in triplicates, and treated with compound for 72 hrs prior to the measurement (FIG. 11). The following “dose matrix”, everolimus; 8 dose, 3×, 500 nM to 0.23 nM, Compound A: 8 dose, 2×, 1 μM to 8 nM, was applied.

[3] = system: GA-10 human Non-Hodgkin's Lymphoma cancer cells; assay: Cell proliferation assay (CellTiter-Glo) in GA-10; type: cell-based
Method: as §1, §2
The cells were plated at 50000 cells/well in 96 well plates in triplicate, and treated with compound for 72 hrs prior to the measurement (FIG. 10). The following “dose matrix”, everolimus: 8 dose, 3×, 500 nM to 0.23 nM, Compound A: 8 dose, 2×, 1 μM to 8 nM, was applied.

[4] = system: AN3 CA human endometrial cancer cells; assay: Cell proliferation assay (CellTiter-Glo) in AN3 CA; type: cell-based
Method: as §1, §2
The cells were plated at 1500 cells/well in 384 well plates in quadruplicates, and treated with compound for 72 hrs before the measurement (FIG. 9). The following “dose matrix”, everolimus: 11 dose, 4×, 500 nM to 0.5 pM, Compound A: 9 dose, 4×, 1 μM to […], was applied.

[5] = system: p4EBP1 T37/46 in NCI-H23 cells; assay: High content p4EBP1 T37/46 assay in NCI-H23 cells; type: cell-based, human
Method: (§3) Automated imaging assay (or High-Content assay) for pS6 S240/244 and p4EBP1 T37/46: 2-4×10^3 cells were seeded in clear-bottom 384-well black plates (Greiner #781091) in 30 μl per well growth media 24 hours prior to treatment Compounds were added to the cell in 10 μl growth media and incubated overnight; the cells were then fixed by addition of 10 μl per well Mirsky's fixative (National Diagnostics #HS-102) for 1 hour, washed seven times with 30 μl/well TBS buffer using a BioTek plate washer, and blocked with 100 μl/well blocking buffer (TBS with 0.1% BSA and 0.1% Triton X-100). The anti-Ser 240/244 -RPS6 antibody (CST #4838, 1:150 dilution) or anti-Thr 37/46-p4EBP1 antibody (CST #2855, 1:150 dilution) were then incubated overnight at 4° C. After seven times wash with TBS, the cells were stained with Cy5-conjugated goat-anti-rabbit IgG 2nd antibody (Millipore #AP187S, 1:150 dilution) and DNA staining dye Neediest 33342 for 1.5 hours. The phospho-S6 and phospho-4EBP1 signals were-imaged using InCell 1000 Analyzer (BN_staining—10×protocol) at 10× magnification, 3 fields per well after seven times wash with TBS. For Hoechst 33342 signal; the excitation and emission wave lengths are 360 nm (D360—40× filter) and […] (HQ460—40M filter), respectively, and for Cy5, 620 nm (HQ620—60× filter) for both the excitation and emission wave lengths. Analysis of the images was done using the InCell Investigator software.
as §2
The cells were plated at 3000 cells per well in 384 well plates in quadruplicates, and treated with compound for 18 hrs before the measurement (FIGS. 1-2).

[6] = system: pS6 S240/244 in NCI-H23 cells; assay: High content pS6 S240/244 assay in NCI-H23 cells; type: cell-based; conditions: Homo sapiens, single agent, NCI-H23, 18 hrs; for IC50: read-out: IC50, inhibition of pS6 signal; for IC90: read-out: IC90, inhibition of pS6 signal
Method: as §3, §2
The experiment setup is identical to the p4EBP1 assay used for the NCI-H23 cell model (FIGS. 3-4). […]

[7] = single agent, RPMI 8226, 72 hrs

## Cn1c(=O)n(-c2ccc(C(C)(C)C#N)cc2)c2c3cc(-c4cnc5ccccc5c4)ccc3ncc21 [Compound A, 2-methyl-2-[4-(3-methyl-2-oxo-8-quinolin-3-yl-2,3-dihydro-imidazo[4,5-c]quinolin-1-yl)-phenyl]-propionitrile]
[1]; Compound A alone, RPMI 8226
  full effective dose amount of Compound A: > 125 nM
[1]; concomitant everolimus, RPMI 8226, read-out: IC50 for Compound A, cell growth
  IC50: 16 nM
[1]; single agent, RPMI 8226, 72 hrs, read-out: IC50, inhibition of cell growth
  IC50: ~125 nM
[1]; [7]
  Amax: 0.7
[1]; with trace amount (sub-nanomolar) of everolimus, RPMI 8226
  full effective dose amount of Compound A: 16 to 62 nM
[2]; Compound A alone, KMS-11
  full effective dose amount of Compound A: > 125 nM
[2]; concomitant everolimus, KMS-11, read-out: IC50 for Compound A, cell growth
  IC50: 16 nM
[2]; single agent, KMS-11, 72 hrs, read-out: IC50, inhibition of cell growth
  IC50: ~80 nM
[2]; single agent, KMS-11, 72 hrs
  Amax: 0.7
[2]; with trace amount (sub-nanomolar) of everolimus, KMS-11
  full effective dose amount of Compound A: 16 to 82 nM
[3]; Compound A alone, GA-10
  full effective dose amount of Compound A: > 250 nM
[3]; Homo sapiens, GA-10, 72 h, single agent, GA-10, 72 hrs, read-out: IC90, inhibition of cell growth
  IC90: 250 nM
[3]; Homo sapiens, GA-10, concomitant everolimus, GA-10, read-out: IC90 for Compound A, cell growth
  IC90: 16 nM
[3]; Homo sapiens, single agent, GA-10, 72 hrs, read-out: IC50, inhibition of cell growth
  IC50: ~25 nM
[3]; single agent, GA-10, 72 hrs
  Amax: 1
[3]; single agent, GA-10, 72 hrs, read-out: IC90, inhibition of cell growth
  IC90: ~300 nM
[3]; with trace amount (sub-nanomolar) of everolimus, GA-10
  full effective dose amount of Compound A: 16 to 62 nM
[4]; Compound A alone
  full effective dose amount of Compound A: > 64 nM
[4]; Homo sapiens, single agent, 72 hrs, read-out: IC50, inhibition of cell growth
  IC50: 5 nM
[4]; single agent, 72 hrs
  Amax: 0.69
[4]; with trace amount (picomolar) of everolimus
  full effective dose amount of Compound A: close to nanomolar or sub-nanomolar range
[5]; Homo sapiens, in combination with 5 nM everolimus, NCI-H23, read-out: IC90 for Compound A, p4EBP1 signal
  IC90: 5 nM
[5]; Homo sapiens, single agent, NCI-H23, 18 hrs, read-out: IC50, reduction of p4EBP1 signal
  IC50: 10 nM
[5]; Homo sapiens, single agent, NCI-H23, 18 hrs, read-out: IC90, reduction of p4EBP1 signal
  IC90: 80 nM
[5]; single agent, NCI-H23
  concentration at which p4EBP1 signal reduction plateaued (complete inhibition): ≥ 167 nM
[5]; with 5 nM everolimus vs Compound A alone
  reduction of IC90 for Compound A, p4EBP1 signal: 16 fold
[6]
  IC50: 5 nM
  IC90: ~20 nM

## CO[C@H]1C[C@@H]2CC[C@@H](C)[C@@](O)(O2)C(=O)C(=O)N2CCCC[C@H]2C(=O)O[C@H]([C@H](C)C[C@@H]2CC[C@@H](OCCO)[C@H](OC)C2)CC(=O)[C@H](C)/C=C(\C)[C@@H](O)[C@@H](OC)C(=O)[C@H](C)C[C@H](C)/C=C/C=C/C=C/1C [everolimus, 40-O-(2-hydroxyethyl)-rapamycin, reference compound]
[1]; [7]
  Amax: 0.15
[2]; single agent, KMS-11, 72 hrs
  Amax: 0.28
[3]; single agent, GA-10, 72 hrs
  Amax: 0.3
[4]; single agent, 72 hrs
  Amax: 0.3
[5]; single agent, all concentrations tested 5 nM-1.2 μM, NCI-H23
  p4EBP1 signal reduction: approximately 30%
[6]
  IC50: < 5 nM
  IC90: ~10 nM
